{"source": "patent US20260221281A1", "about": "“PREDICTING PATIENT OUTCOMES RELATED TO PANCREATIC CANCER” (Valar Labs, Inc., priority 2023, published 2026)", "assay_type_in_all_cases": "in vivo, human", "key": {"[1]": {"tested_on": "resected pancreatic ductal adenocarcinoma (PDAC)", "experiment": "DSS after adjuvant gemcitabine in resected PDAC, TCGA test set stratified by VPG signature", "excerpt": "Data from three cohorts of patients were utilized for this experiment: a cohort of 93 patients forming a training data set, a cohort of 46 patients forming a first external data set, and a cohort of 161 patients forming a second external data set. The training data set was identified by selecting PDAC patients who had received adjuvant gemcitabine and no 5-fluorouracil. The training data set included available histopathologic images, data on disease specific survival, and demographic details. From the available histopathologic images, the image identified as the diagnostic slide was used for image analysis by the AI-based pathology platform. Scanned histologic images were analyzed through an AI-based pathology platform in accordance with the systems and methods described herein. The process included tissue segmentation, nuclei segmentation, and finally geometric feature extraction. Tissue was segmented via color-based thresholding to remove empty regions of the slide. Patches of size 2132×2132 were extracted from tissue regions and a validated deep learning model developed was used to segment and classify each nucleus automatically into five classes (i.e., Neoplastic, Connective, No-Neoplastic/Epithelial, Necrotic, Inflammatory). Descriptive morphometric features were then computed for each nucleus. Geometric features were then aggregated first at the patch, and subsequently at the patient level using summary statistics including the mean, standard deviation, skewness and kurtosis to produce the final feature vector for a patient. This feature vector was used as the input to a cox proportional hazards model that used the least absolute shrinkage and selection operator to identify the most correlated features with DSS along with their coefficients on the training set. FIG. 9 provides an illustration of a process to construct a histologic signature associated with disease-specific survival (DSS) after adjuvant gemcitabine. A dataset of scanned whole slide images and the associated clinical data from a cohort of 93 PDAC patients treated with adjuvant gemcitabine in The Cancer Genome Atlas (TCGA) was analyzed. The process to construct a histologic signature includes obtaining a slide 901, digitizing a slide 903, and determining the presence or absence of a histologic biomarker 905. Slides may be obtained in step 901 by resection of pancreatic ductal adenocarcinoma (PDAC). The slides may then then be digitized in step 903 by scanning hematoxylin and eosin-stained resection specimens for whole slide images and subsequently performing digital pathology analysis. […]"}, "[2]": {"tested_on": "resected pancreatic ductal adenocarcinoma (PDAC)", "experiment": "DSS and time to recurrence after adjuvant gemcitabine in resected PDAC, external cohort stratified by VPG signature", "settings": "for median time to recurrence: adjuvant gemcitabine-based therapy (n=46)", "excerpt": "The first external data set represented a set of consecutive 24 patients treated with resection and adjuvant gemcitabine. Clinical data was obtained via manual chart review of the electronic medical record. Digitally scanned tissue microarray specimens were used for image analysis. The cores were 1 mm and were obtained from formalin-fixed, paraffin-embedded (FFPE) samples of extra portions of surgical resections. Whole tissue resection specimens were not available for analysis for this study. Scanned histologic images were analyzed through an AI-based pathology platform in accordance with the systems and methods described herein. The process included tissue segmentation, nuclei segmentation, and finally geometric feature extraction. Tissue was segmented via color-based thresholding to remove empty regions of the slide. Patches of size 2132×2132 were extracted from tissue regions and a validated deep learning model developed was used to segment and classify each nucleus automatically into five classes (i.e., Neoplastic, Connective, No-Neoplastic/Epithelial, Necrotic, Inflammatory). Descriptive morphometric features were then computed for each nucleus. Geometric features were then aggregated first at the patch, and subsequently at the patient level using summary statistics including the mean, standard deviation, skewness and kurtosis to produce the final feature vector for a patient. This feature vector was used as the input to a cox proportional hazards model that used the least absolute shrinkage and selection operator to identify the most correlated features with DSS along with their coefficients on the training set. Subsequently, the performance of the signature in stratifying patients was assessed in two external validation cohorts. A first external cohort 1005 included 45 patients who underwent PDAC resection followed by gemcitabine treatment for whom digitally scanned tissue microarrays of tumor specimens were available. A second external cohort 1007 included 161 patients, whose tumors were resected between 1978 and 2008, when adjuvant treatment was not administered as part of the standard of care. To investigate performance beyond the [NT], experiments applying the model in a retrospective cohort of adjuvant-gemcitabine-treated patients and a retrospective cohort of untreated patients were performed. As illustrated in FIGS. 17A-17D, the VPG signature generalizes to external cohorts of gemcitabine-treated patients but not untreated patients."}, "resected PDAC tumors": {"tested_on": "resected PDAC tumors", "experiment": "DSS of resected PDAC patients receiving gemcitabine, divided into two histological subtypes by the model (Example 3)", "excerpt": "One hundred and thirty-nine (139) whole-slide digitized histological slides corresponding to one hundred and two (102) resected PDAC tumors from a data set were used as a training set. This dataset corresponded to patients that had received either gemcitabine-backbone or 5 FU-backbone chemotherapy as their first-line adjuvant treatment. An AI-based pathology platform such as the one described herein was used to extract nuclei images from tissue regions using segmentation models and compute geometric features of these nuclei. The subsequent features were then correlated with Disease Specific Survival (DSS) in order to construct a signature associated with treatment benefit. The resulting signature was compared against two board certified pathologists using the grade of the digital slides images to classify patients into above or below average DSS buckets."}, "resected PDAC": {"tested_on": "resected PDAC", "experiment": "DSS and RFS of post-operatively treated resected PDAC patients, external cohort stratified by gemcitabine-response signature (Example 4)", "settings": "external cohort (45 patients)", "excerpt": "Digitized histological hematoxylin and cosin stained tissue microarray blocks corresponding to post-operatively treated resected PDAC patients from 2011-2015 were used in this experiment. Of the 45 patients, 22 were neoadjuvantly treated with either gemcitabine or 5-FIU backbone cytotoxic chemotherapy. Using the histologic images, the AI-based pathology platform extracted nuclei images from tissue regions using segmentation models and computed geometric features of these nuclei. Patients were stratified by the signature previously associated with gemcitabine response in a dataset into low and high risk groups, and Disease Specific Survival (DSS) and Recurrence Free Survival (RFS) was compared between the stratified groups via Kaplan Meier estimators and log-rank test."}}, "data": [{"smiles": "Nc1ccn([C@@H]2O[C@H](CO)[C@@H](O)C2(F)F)c(=O)n1", "note": "[gemcitabine]", "values": [{"measurement": "median DSS", "setting": "[1]; TCGA validation subset (47 patients), negative VPG signature", "result": 16.0, "unit": "months"}, {"measurement": "median DSS", "setting": "[1]; TCGA validation subset (47 patients), positive VPG signature", "result": 67.9, "unit": "months"}, {"measurement": "median DSS", "setting": "[1]; sub-group of 39 validation patients with RNAseq data, negative VPG signature", "result": 16.0, "unit": "months"}, {"measurement": "median DSS", "setting": "[1]; sub-group of 39 validation patients with RNAseq data, positive VPG signature", "result": 67.9, "unit": "months"}, {"measurement": "median time to recurrence", "setting": "[2]; negative VPG signature", "result": 9.1, "unit": "months"}, {"measurement": "median time to recurrence", "setting": "[2]; positive VPG signature", "result": 22.6, "unit": "months"}, {"measurement": "median DSS", "setting": "[2]; adjuvant gemcitabine-based therapy, external cohort (n=46), negative VPG signature", "result": 16, "unit": "months"}, {"measurement": "median DSS", "setting": "[2]; adjuvant gemcitabine-based therapy, external cohort (n=46), positive VPG signature", "result": 43.1, "unit": "months"}, {"measurement": "median DSS", "setting": "[2]; external cohort, no therapy prior to surgery (n=24), negative VPG signature", "result": 12.9, "unit": "months"}, {"measurement": "median DSS", "setting": "[2]; external cohort, no therapy prior to surgery (n=24), positive VPG signature", "result": 40.2, "unit": "months"}, {"measurement": "median DSS", "setting": "resected PDAC tumors; first histological subtype (threshold: average expected lifetime)", "result": 586, "unit": "days"}, {"measurement": "median DSS", "setting": "resected PDAC tumors; second histological subtype (threshold: average expected lifetime)", "result": 394, "unit": "days"}, {"measurement": "median DSS", "setting": "resected PDAC; high risk group", "result": 16, "unit": "months"}, {"measurement": "median RFS", "setting": "resected PDAC; high risk group", "result": 9.1, "unit": "months"}, {"measurement": "median DSS", "setting": "resected PDAC; low risk group", "result": 43, "unit": "months"}, {"measurement": "median RFS", "setting": "resected PDAC; low risk group", "result": 22.6, "unit": "months"}]}]}
